Data reported in PMC12466602, “Novel Hybrid Peptide DEFB126 (1-39)-TP5 Inhibits LPS-Induced Inflammatory Responses and Oxidative Stress by Neutralizing LPS and Blocking the TLR4/MD2-NFκB Signaling Axis” (Antioxidants, 2025).
Marks after values point to notes of the source that are not given here. Where no end group is shown, it is not given here.

Assays:
in vitro = settings: rat, plasma
Experimental: (§1) The above peptide solutions were incubated at 37 °C for varying lengths of time and then immediately transferred to pre-cooled test tubes containing 1 mL of acidic acetone (hydrochloric acid/acetone/H2O, v/v/v 1:40:5) to terminate the reaction. The concentration of the hydrochloric acid solution before dilution is 50 mM. The precipitate was subsequently separated by centrifugation at 20,000× g for 20 min at 4 °C. The obtained precipitates were dried in vacuo and then dissolved in 0.5 mL of 1 M acetic acid. Peptide analysis was conducted according to the protocol for the study of TP5 using HPLC [2]. Peptide half-lives were obtained by fitting a linear regression model based on logarithmic concentration-time.

RAW264.7 macrophages = assay: CCK-8 cell viability assay; settings: 24 h; for cell survival rate: RAW264.7, 10 μg/mL peptide, CCK-8, OD450
Experimental: RAW 264.7 cells were maintained in DMEM medium containing 10% (v/v) fetal bovine serum and 1% (v/v) penicillin-streptomycin at 37 °C, 5% CO2.
RAW264.7 cells (3 × 10^4 cells/mL) were plated in 96-well plates in 100 μL DMEM overnight and then cultured in fresh medium containing a 2-fold concentration of peptide for another 24 h. Add 10 μL of CCK-8 solution to each well and incubate for 4 h away from light. Then, the optical density at 450 nm was measured using a microplate reader. Cell viability was determined byCell viability (%) = (OD450 (sample)/OD450 (control)) × 100%(1) where OD450 (sample) is the absorbance at 450 nm of the cells with peptides treated and OD450 (control) is the absorbance at 450 nm of the cells without peptides treated.

LPS-induced sepsis model = assay: Murine LPS-induced sepsis / liver injury model; assay type: in vivo, C57BL/6 mice; settings: mice
Experimental: Male C57BL/6 mice (6–8 weeks of age) were purchased from Charles River (Beijing, China). During the experiments, mice were housed in a specific-pathogen-free (SPF) environment with a temperature of 22 ± 1 °C and a relative humidity of 55 ± 10%. All the animal experiments were conducted with the approval of the Animal Care and Use Committee of China Agricultural University.
The mice were randomly divided into five groups of 12: control, LPS (E. coli O111: B4, Sigma-Aldrich, St. Louis, MO, USA), DEFB126 + LPS, TP5 + LPS, and DTP + LPS. The corresponding peptide (10 mg/kg) was injected intraperitoneally during the pretreatment stage. The control group was synchronized with the LPS group by injecting an equal amount of saline.
During the first 7 days of the experiment, each group received the above treatments once a day. On day 7, the LPS model group and the peptide pretreatment groups (DEFB126 + LPS, TP5 + LPS, and DTP + LPS) were injected intraperitoneally with 20 mg/kg of LPS to establish a sepsis model. The control group was injected with an equal volume of saline. Sixteen hours after the LPS injection, the mice were euthanized, and liver tissues and blood samples were collected. The serum was then separated by centrifugation and stored at −80 °C for measurement.
Mouse liver tissues were fixed with 4% paraformaldehyde, embedded in paraffin, and sliced continuously on a rotary slicer (Leica, RM2235, Nußloch, Germany) at a thickness of 5 μm. After dewaxing and rehydration, the tissues were subjected to Hematoxylin-Eosin (H&E) contrast staining. LPS-induced liver injury was evaluated according to a previous study. The liver injury score was graded on a 0- to 3-point scale: 0, no injury; 1, mild injury with cytoplasmic vacuolation; 2, moderate to severe injury consisting of extensive loss of intercellular borders and nuclear pyknosis; and 3, severe necrosis consisting of liver hemorrhage and neutrophil infiltration.
The levels of tumor necrosis factor (TNF)-α, interleukin (IL)-6, and IL-1β in the serum of mice were detected using commercial ELISA kits (eBioscience, San Diego, CA, USA). Commercial reagent kits (Nanjing Jiancheng Bioengineering Institute, Nanjing, China) were used to detect the levels of serum alanine amino transferase (ALT) and aspartate amino transferase (AST).

[1] = LPS neutralization, Chromogenic End-point Tachypleus Amebocyte Lysate (CE TAL) assay; assay type: biochemical, E. coli; settings: LPS 1.0 U/mL, peptide 0 to 128 μg/mL, 15 min at 37 °C, OD540; mean ± SD of 3 independent experiments
Experimental: The LPS-neutralizing ability of the peptides was assessed through a quantitative Chromogenic End-point Tachypleus Amebocyte Lysate (CE TAL) assay (Xiamen Bioendo Technology Co., Xiamen, China). LPS (final concentration 1.0 U/mL; E. coli, O55:B5) was incubated with different concentrations of the peptides (final concentration 0 to 128 μg/mL) for 15 min at 37 °C. Then, the mixtures were incubated with TAL assay reagent at 37 °C for 6 min, and the optical density at 540 nm was measured.

RAW264.7 cells = assay: ROS generation (DCFH2-DA, fluorescence microscopy and flow cytometry); assay type: cell-based; settings: RAW264.7, LPS 100 ng/mL 1 h, then DTP 12 h
Experimental: RAW264.7 cells (1 × 10^5 cells/mL cell density) were incubated with LPS (100 ng/mL) at 37 °C for 1 h. After that, cells were treated with DTP at 37 °C for 12 h. The cells were then stained with 5 μM DCFH2-DA for 30 min at 37 °C in the dark. The cells were then washed extensively with PBS before analysis by fluorescence microscope and flow cytometry.

[2] = system: phosphorylation of IKK-β, IκB-α and NF-κB; assay: Western blot of NF-κB signaling pathway; assay type: cell-based; settings: LPS-stimulated
Experimental: Samples were fractionated into cytoplasmic and nuclear components using the NR-PER Nuclear and Cytoplasmic Protein Extraction Kit (Thermo Fisher Scientific Inc., Waltham, MA, USA). Protein levels in each fraction were determined via a bicinchoninic acid (BCA) assay (KeyGEN Biotech, Nanjing, China). Subsequently, protein fractions were separated by 10% SDS-polyacrylamide gel electrophoresis and transferred to methanol-activated PVDF membranes (Bio-Rad, Hercules, CA, USA). After membrane transfer, the membranes were blocked with 5% skimmed milk, followed by incubation with phosphorylated antibodies: p-IKK-β, p-IкB-α, p-NF-кB (p-p65), and GAPDH (Santa Cruz), with shaking overnight at 4 °C. After TBST washing, the membranes were incubated with HRP-labeled species-matched secondary antibody (HuaAn Biologicals, Hangzhou, China) for 60 min at room temperature. The density of specific proteins was quantified using the ChemiDoc MP imaging system (Bio-Rad, Hercules, CA, USA).

[3] = Ex vivo stability in plasma (HPLC); settings: rat plasma, peptide 10 µg/mL, 37 °C, linear regression of log concentration-time, mean ± SD of 3 biological replicates
Experimental: as §1

[4] = target: Toll-like receptor 4/myeloid differentiation factor 2 (TLR4/MD-2) complex (UniProt Q9QUK6 26-835; Q9JHF9 19-160, The source, species and construct of the SPR protein are not stated. Mouse is inferred from the docking receptor (PDB 2Z64) and the mouse models. Limits by convention: TLR4 extracellular domain and ma); assay: SPR; Biacore X100, CM5 chip, amine coupling; running buffer PBS with 0.05% Tween 20, 30 μL/min; peptide gradient 0, 1.25, 2.5, 5 and 10 mM as printed; 1:1 binding model; legend and results: TLR4/MD-2 immobilised and DTP flowed over (the methods say DTP was immobilised); settings: both partners purified
[5] = ELISA, peptide 10 mg/kg i.p. pretreatment, LPS, 16 h
[6] = peptide 10 mg/kg i.p. once daily pretreatment, then LPS i.p., 16 h after LPS
[7] = peptide 10 mg/kg i.p. pretreatment, LPS, 16 h

Chain of Toll-like receptor 4/myeloid differentiation factor 2 (TLR4/MD-2) complex (Q9QUK6 26-835, chain 1 of 2): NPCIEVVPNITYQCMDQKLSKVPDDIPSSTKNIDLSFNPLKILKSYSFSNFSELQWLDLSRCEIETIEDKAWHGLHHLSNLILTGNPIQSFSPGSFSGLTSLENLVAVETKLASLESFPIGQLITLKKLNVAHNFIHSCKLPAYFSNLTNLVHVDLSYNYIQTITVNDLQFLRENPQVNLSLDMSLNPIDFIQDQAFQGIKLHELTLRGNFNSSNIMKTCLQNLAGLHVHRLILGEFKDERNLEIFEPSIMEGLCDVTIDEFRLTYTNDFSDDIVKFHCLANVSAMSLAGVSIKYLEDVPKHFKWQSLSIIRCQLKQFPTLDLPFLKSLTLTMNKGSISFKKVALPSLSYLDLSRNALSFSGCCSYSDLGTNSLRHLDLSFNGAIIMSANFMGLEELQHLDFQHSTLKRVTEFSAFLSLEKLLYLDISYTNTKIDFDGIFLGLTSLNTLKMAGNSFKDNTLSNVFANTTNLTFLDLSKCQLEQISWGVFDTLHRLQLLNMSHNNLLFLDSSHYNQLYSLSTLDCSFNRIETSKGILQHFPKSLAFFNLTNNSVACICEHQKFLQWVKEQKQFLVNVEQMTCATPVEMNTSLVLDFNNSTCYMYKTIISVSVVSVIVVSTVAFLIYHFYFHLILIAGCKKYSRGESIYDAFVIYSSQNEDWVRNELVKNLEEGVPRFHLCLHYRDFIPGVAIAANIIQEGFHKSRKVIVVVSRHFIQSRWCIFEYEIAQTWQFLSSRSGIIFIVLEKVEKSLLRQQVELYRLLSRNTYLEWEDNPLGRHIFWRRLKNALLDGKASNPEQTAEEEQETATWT
Chain of Toll-like receptor 4/myeloid differentiation factor 2 (TLR4/MD-2) complex (Q9JHF9 19-160, chain 2 of 2): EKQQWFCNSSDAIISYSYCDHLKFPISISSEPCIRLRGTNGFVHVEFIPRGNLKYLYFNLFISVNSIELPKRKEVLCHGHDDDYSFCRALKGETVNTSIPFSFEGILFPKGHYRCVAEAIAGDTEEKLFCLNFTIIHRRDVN

Molecule	half-life at 10 µg/mL (in vitro) [h]	cell survival rate (RAW264.7 macrophages)	serum IL-1β level (LPS-induced sepsis model; [5])	serum IL-6 level (LPS-induced sepsis model; [5])	serum TNF-α level (LPS-induced sepsis model; [5])	liver injury score (LPS-induced sepsis model; H&E, 0- to 3-point scale, peptide 10 mg/kg i.p. pretreatment, LPS, 16 h)	serum ALT level (LPS-induced sepsis model; [6])	serum AST level (LPS-induced sepsis model; [6])	liver CAT activity (LPS-induced sepsis model; [7])	liver GSH-Px activity (LPS-induced sepsis model; [7])	liver SOD activity (LPS-induced sepsis model; [7])	50% neutralization rate value [1]	LPS-induced ROS generation (RAW264.7 cells)	LPS-induced phosphorylation of IKK-β, IκB-α and NF-κB [2]	cytotoxicity compared with parental peptides (RAW264.7 macrophages; RAW264.7, 2-fold series of concentrations, CCK-8)	t1/2 in plasma [3]	Kd [4] [nM]
NWYVKKCLNDVGICKKKCKPEEMHVKNGWAMCGKQRDCCVPAD (cysteines drawn unpaired) [DEFB126]	5.41 ± 0.885	higher than 80%	–	–	–	–	–	–	–	–	–	–	–	–	–	–	–
NWYVKKCLNDVGICKKKCKPEEMHVKNGWAMCGKQRDCCRKDVY (cysteines drawn unpaired) [DTP]	–	higher than 80%	significantly decreased	significantly decreased	significantly decreased	significantly lower liver injury score than the LPS-treated, TP5-pretreated, and DEFB126-pretreated groups	markedly lower than those in the TP5-pretreated group and DEFB126-pretreated group	markedly lower than those in the TP5-pretreated group and DEFB126-pretreated group	significantly reversed these effects	significantly reversed these effects	significantly reversed these effects	approximately 11.58 ± 2.07 μg/mL	remarkably attenuated	significantly inhibited	significantly lower than DEFB126 and TP5	349 ± 69.17 ^a min	–
NWYVKKCLNDVGICKKKCKPEEMHVKNGWAMCGKQRDCCRKDVY (DEFB126 (1-39): residues 21-59 of human β-defensin 126 (111 amino acids); thymopentin (TP5), the core active fragment of thymopoietin, full-length TP5; whether disulfide bonds form is left open by the authors; also called DTP; DTP peptide; source: synthetic peptide (KangLong Biochemistry, 95% purity)) [hybrid peptide DEFB126 (1-39)-TP5]	–	–	–	–	–	–	–	–	–	–	–	–	–	–	–	–	2300
